Read-outs that look alike come from different tables or passages of the source.
Legend:
[1] = tested on: HT29 colon; parameters: method as in PMID 36296713, PMID 36142383; conditions: cited from earlier work
[2] = tested on: peritoneal carcinomatosis; parameters: method as in PMID 20535526; conditions: BD-IX rats, intravenous and intraperitoneal routes; cited from earlier work
[3] = tested on: U87 glioblastoma; parameters: method as in PMID 36296713, PMID 36142383; conditions: cited from earlier work
[4] = tested on: MIA pancreas; parameters: method as in PMID 36296713, PMID 36142383; conditions: cited from earlier work
[5] = tested on: non-tumour derived MCF10A breast line; parameters: method as in PMID 36296713, PMID 36142383; conditions: cited from earlier work
[6] = tested on: A431 skin; parameters: method as in PMID 36296713, PMID 36142383; conditions: cited from earlier work
[7] = tested on: SJG2 glioblastoma; parameters: method as in PMID 36296713, PMID 36142383; conditions: cited from earlier work
[8] = tested on: MCF10A / Du145; parameters: method as in PMID 36296713, PMID 36142383; conditions: GI50 in MCF10A/GI50 in Du145, from data of previous studies; cited from earlier work
[9] = tested on: multiple cell lines; parameters: method as in PMID 36296713, PMID 36142383; conditions: mean over all cell lines tested; cited from earlier work
[10] = tested on: Du145 prostate; parameters: method as in PMID 36296713, PMID 36142383; conditions: cited from earlier work
[11] = tested on: HT29 colon cells; parameters: method as in PMID 36296713, PMID 36142383; conditions: cited from earlier work
[12] = tested on: MCF7 breast; parameters: method as in PMID 36296713, PMID 36142383; conditions: cited from earlier work
[13] = tested on: A2780 ovarian; parameters: method as in PMID 36296713, PMID 36142383; conditions: cited from earlier work
[14] = Stability in 10 mM PBS monitored by HPLC; type: physicochemical; conditions: 10 mM PBS pH ~7.4, 36 h, room temperature and 37 °C
Description: The stability measurements for complexes 1–6 were determined by dissolving each complex in 10 mM aqueous phosphate buffered saline (PBS) solution at pH ~7.4 and incubated at room temperature and at 37 °C for 36 h. The experiments were monitored via HPLC.
Additional stability studies for 1–6 were undertaken using 10 mM PBS (~7.4 pH) as the aqueous solution, but without the presence of a reducing agent such as AsA. This was only to show whether the complexes would be stable in aqueous solution for long hours. Each complex was dissolved in PBS and incubated at room temperature and at 37 °C for 36 h. After the incubation, all samples were analysed through HPLC. […] After 36 h at room temperature, peak traces of platinum(IV) complexes and the platinum(II) precursors, as well as the dissociated ACE ligand, were present, as shown in Figure S77. […] From this, it was reasoned that the larger the ligand conjugated to our platinum(IV) scaffold (i.e., ACE), the more susceptible the resulting derivatives (4–6) are to reduction, as they reduce even without a reducing agent. This parallels the results from the reduction experiments above, where 4–6 were the quickest to reduce in the presence of AsA.

[15] = tested on: PC3 (prostate carcinoma) tumour; parameters: method as in PMID 18997969; conditions: mice with PC3 tumour, cited from earlier work; for reduction in mean tumour mass: relative to vehicle-treated control
[16] = Lipophilicity by HPLC (log kw); type: physicochemical; conditions: extrapolated from log k versus % organic solvent
Description: Lipophilicity measurements were undertaken using HPLC, as previously described (see Supplementary Materials).
Lipophilicity measurements were undertaken using HPLC as previously described. The complexes were eluted at different isocratic ratios. The capacity factor (k) was calculated using the retention times of the complexes. A standard curve was generated to determine the log value of the capacity factor (log k), and this was performed by plotting the log k value at each isocratic ratio versus the percentage of the organic solvent used in solvent (Figure S61). This produced a linear expression that allowed for the extrapolation of log kw. Log kw is the measure of lipophilicity; therefore, a greater value corresponds to increased lipophilicity.

[17] = tested on: MCF10A / Du145; experiment: Selectivity cytotoxicity index (GI50 in MCF10A/GI50 in Du145); conditions: GI50 in MCF10A/GI50 in Du145
[18] = parameters: method as in earlier work; conditions: cited from earlier work
[19] = Selectivity cytotoxicity index (GI50 in MCF10A/GI50 in Du145); conditions: human, MCF10A normal breast cells and Du145 prostate cancer cells

## Cc1c(C)c2cccnc2c2ncccc12.N[C@H]1CCCC[C@@H]1N.[Pt] [Complex 56MESS, [Pt^II(5,6-Me2phen)(SS-DACH)]^2+]
[1]
  GI50: 10 ± 1.6 nM
[2]
  toxicity: induced nephrotoxicity
  tumour suppression response: did not demonstrate tumour suppression response
[3]
  GI50: 35 ± 6.4 nM
[4]
  GI50: 13 ± 2 nM
[5]
  GI50: 16 ± 1 nM
[6]
  GI50: 29 ± 1 nM
[7]
  GI50: 66 ± 22 nM
[8]
  Selectivity Cytotoxicity Index (SCI): 3.48
[9]
  GI50: 36 ± 10 nM
[10]
  GI50: 4.6 ± 0.4 nM
[11]; HT29, 24 h
  ROS Production: 240 ± 5 RFU
[11]; HT29, 48 h
  ROS Production: 218 ± 3 RFU
[11]; HT29, 72 h
  ROS Production: 255 ± 4 RFU
[12]
  GI50: 93 ± 44 nM
[13]
  GI50: 76 ± 57 nM

## Cc1cc2c3c4c1=CC=C[N]4[Pt+2][N]3C=CC=2.N[C@H]1CCCC[C@@H]1N [Complex 5MESS]
[1]
  GI50: 33 ± 4 nM
[3]
  GI50: 320 ± 26 nM
[4]
  GI50: 48 ± 2 nM
[5]
  GI50: 30 ± 2 nM
[6]
  GI50: 120 ± 25 nM
[7]
  GI50: 220 ± 10 nM
[8]
  Selectivity Cytotoxicity Index (SCI): 1.36
[9]
  GI50: 117 ± 12 nM
[10]
  GI50: 22 ± 3 nM
[11]; HT29, 24 h
  ROS Production: 204 ± 4 RFU
[11]; HT29, 48 h
  ROS Production: 205 ± 3 RFU
[11]; HT29, 72 h
  ROS Production: 188 ± 3 RFU
[12]
  GI50: 200 ± 12 nM
[13]
  GI50: 61 ± 10 nM

## COc1ccc2cc([C@H](C)C(=O)[O][Pt+2]3([OH])[N]4C=CC=c5cc(C)c6c(c54)[N]3C=CC=6)ccc2c1.N[C@H]1CCCC[C@@H]1N (stereo partly drawn) [Complex 2, [Pt^IV(5-Mephen)(SS-DACH)(NPX)(OH)]^2+]
[14]
  stability in PBS: some traces of precursor platinum(IV) complexes and the dissociated NPX ligand were evident

## N.N.[Cl][Pt][Cl] [Cisplatin, cis-diamminedichloroplatinum(II)]
[1]
  GI50: 11300 nM
[3]
  GI50: 3800 ± 1100 nM
[4]
  GI50: 7500 ± 1300 nM
[5]
  GI50: 5200 ± 520 nM
[6]
  GI50: 2400 ± 300 nM
[7]
  GI50: 400 ± 100 nM
[15]
  reduction in mean tumour mass: comparable reduction in mean tumour mass
[9]
  GI50: 5840 ± 610 nM
[10]
  GI50: 1200 ± 100 nM
[12]
  GI50: 6500 ± 800 nM
[13]
  GI50: 1000 ± 100 nM

## COc1ccc2c(c1)c(CC(=O)OCC(=O)[O][Pt-2]13([OH])([NH2+][C@H]4CCCC[C@@H]4[NH2+]1)[n+]1cccc4ccc5ccc[n+]3c5c41)c(C)n2C(=O)c1ccc(Cl)cc1 [Complex 4, [Pt^IV(phen)(SS-DACH)(ACE)(OH)]^2+]
[16]
  log kw Values: 1.93
[17]
  Selectivity Cytotoxicity Index (SCI): 2.40

## COc1ccc2c(c1)c(CC(=O)OCC(=O)O)c(C)n2C(=O)c1ccc(Cl)cc1 [ACE, acemetacin]
[18]
  reported lipophilicity values: 4.49
[19]
  selectivity ratio: 1

## C1=C[N]2[Pt+2][N]3C=CC=c4ccc(c2c43)=C1.N[C@H]1CCCC[C@@H]1N [PHENSS]
[1]
  GI50: 160 ± 45 nM
[3]
  GI50: 980 ± 270 nM
[4]
  GI50: 200 ± 57 nM
[5]
  GI50: 300 ± 58 nM
[6]
  GI50: 480 ± 170 nM
[7]
  GI50: 330 ± 66 nM
[15]
  reduction in mean tumour mass: comparable reduction in mean tumour mass
  toxic side effects: did not elicit any toxic side effects
[8]
  Selectivity Cytotoxicity Index (SCI): 3.00
[9]
  GI50: 434 ± 110 nM
[10]
  GI50: 100 ± 38 nM
[11]; HT29, 24 h
  ROS Production: 174 ± 2 RFU
[11]; HT29, 48 h
  ROS Production: 172 ± 9 RFU
[11]; HT29, 72 h
  ROS Production: 176 ± 7 RFU
[12]
  GI50: 1500 ± 500 nM
[13]
  GI50: 230 ± 30 nM

## COc1ccc2c(c1)c(CC(=O)OCC(=O)[O][Pt-2]13([OH])([NH2+][C@H]4CCCC[C@@H]4[NH2+]1)[n+]1cccc4cc(C)c5ccc[n+]3c5c41)c(C)n2C(=O)c1ccc(Cl)cc1 [Complex 5, [Pt^IV(5-Mephen)(SS-DACH)(ACE)(OH)]^2+]
[16]
  log kw Values: 2.16
[17]
  Selectivity Cytotoxicity Index (SCI): 15.4

## COc1ccc2c(c1)c(CC(=O)OCC(=O)[O][Pt-2]13([OH])([NH2+][C@H]4CCCC[C@@H]4[NH2+]1)[n+]1cccc4c(C)c(C)c5ccc[n+]3c5c41)c(C)n2C(=O)c1ccc(Cl)cc1 [Complex 6, [Pt^IV(5,6-Me2phen)(SS-DACH)(ACE)(OH)]^2+]
[16]
  log kw Values: 2.29
[17]
  Selectivity Cytotoxicity Index (SCI): 15.5

— PMC10177380 (Cancers, 2023)
